Results taken from PubChem BioAssay (NCI).
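Test compounds were applied to cells in 96-well plates for 48 hours at 5 doses. Abbreviation: GI50, concentration required for 50% inhibition of growth. Definition used: TGI = concentration required for complete inhibition of growth.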

Experiments:
Test in all cases: DTP human tumour cell line panel, 48 h
786-0 renal = system: 786-0 renal
A549 NSCLC = system: A549 NSCLC
CAKI-1 renal = system: CAKI-1 renal
HCT-15 colon = system: HCT-15 colon
NCI-H522 lung = system: NCI-H522 lung
RXF 393 renal = system: RXF 393 renal
SK-MEL-2 melanoma = system: SK-MEL-2 melanoma
SW-620 colon = system: SW-620 colon
TK-10 renal = system: TK-10 renal
UACC-62 melanoma = system: UACC-62 melanoma

Row | SMILES | TGI (786-0 renal) | TGI (A549 NSCLC) | TGI (CAKI-1 renal) | TGI (HCT-15 colon) | TGI (NCI-H522 lung) | TGI (RXF 393 renal) | TGI (SK-MEL-2 melanoma) | TGI (SW-620 colon) | TGI (TK-10 renal) | TGI (UACC-62 melanoma) | GI50 (786-0 renal) | GI50 (A549 NSCLC) | GI50 (CAKI-1 renal) | GI50 (HCT-15 colon) | GI50 (NCI-H522 lung) | GI50 (RXF 393 renal) | GI50 (SK-MEL-2 melanoma) | GI50 (SW-620 colon) | GI50 (TK-10 renal) | GI50 (UACC-62 melanoma)
1 | COC(=O)/C(C#N)=C1\CCc2ccccc21 | > 100 µM | > 100 µM | > 100 µM | > 100 µM | > 100 µM | > 100 µM | > 100 µM | > 100 µM | > 100 µM | > 100 µM |  |  |  |  |  |  |  |  |  | 
2 | Nc1n[nH]c(N)c1N=Nc1ccc(O)cc1 | > 100 µM | > 100 µM | 63.9 µM | 90.6 µM | > 100 µM | 43.9 µM | 57 µM | 84.8 µM | 70.4 µM | 36.4 µM | 26.3 µM | 22.5 µM | 14.7 µM | 24.2 µM | 24.3 µM | 18.4 µM | 14.4 µM | 26.3 µM | 25.7 µM | 11 µM
3 | C=C1C(=O)O[C@H]2[C@H]1CC/C(CNC(=O)/C=C/c1ccccc1)=C\CC[C@@]1(C)O[C@@H]21 | 3.69 µM | 19 µM | 2.49 µM | 2.06 µM | 1.71 µM | 2.15 µM | 3.41 µM | 2.32 µM | 3.03 µM | 2.76 µM | 1.48 µM | 4.39 µM | 1.17 µM | 0.672 µM | 0.357 µM | 0.864 µM | 1.49 µM | 0.577 µM | 1.42 µM | 1.37 µM
4 | NC(=O)c1cccc(-c2cc(C(N)=O)ccc2Cl)c1 | > 100 µM | > 100 µM | > 100 µM | > 100 µM | 23.2 µM | 5.26 µM | > 100 µM | > 100 µM | > 100 µM | 56 µM | 5.37 µM | 12.4 µM | 2.66 µM | 0.846 µM | 2.39 µM | 2.11 µM | 5.21 µM | 2.14 µM | 9.12 µM | 1.77 µM
5 | O=C(CCc1nc(=S)[nH][nH]1)Nc1cccc(C(F)(F)F)c1 | > 100 µM | > 100 µM | > 100 µM | > 100 µM | > 100 µM | > 100 µM | > 100 µM | 28.5 µM | > 100 µM | > 100 µM |  |  |  |  |  |  |  |  |  | 
6 | COc1cc2c(c(OC)c1OC)-c1c(cc3c(c1OC)OCO3)CC(C)C(C)(O)C2OC(=O)c1ccccc1 (centres undefined) | > 100 µM | > 100 µM | > 100 µM | > 100 µM | > 100 µM | 86.2 µM | 80.5 µM | > 100 µM | > 100 µM | > 100 µM |  |  |  |  |  |  |  |  |  | 
7 | COc1cccc(C2C(C#N)=C(N)Oc3c2ccc2ccccc32)c1 (centres undefined) | 12.3 µM | 17.6 µM | 14 µM | 10.2 µM |  | 0.975 µM | 16.5 µM | 17.8 µM | 27.3 µM | 19.8 µM | 0.0364 µM | 0.0232 µM | < 0.01 µM | < 0.01 µM | < 0.01 µM | < 0.0161 µM | 0.0588 µM | < 0.015 µM | 5.71 µM | < 0.01 µM
8 | Nc1ncnc2c1nnn2C1C=C(CO)C(O)C1O (centres undefined) | > 100 µM | > 100 µM | > 100 µM | > 100 µM | > 100 µM | > 100 µM | > 100 µM | > 63.1 µM | > 100 µM | > 100 µM |  |  |  |  |  |  |  |  |  | 
9 | CC1=C(Cl)C[C@@H](/C(C)=C\Cl)O[C@@]1(O)C(Br)Br | > 100 µM | 60.3 µM | 35.4 µM | 32.4 µM | 49.3 µM | 62.2 µM | 73.8 µM | > 100 µM | > 100 µM | > 100 µM |  |  |  |  |  |  |  |  |  | 
10 | CN1CCN(c2cc3nc4ccccc4n(-c4ccc(Cl)cc4)c-3cc2=N)CC1 | > 100 µM | 60.8 µM | 82 µM | 81.3 µM | 52.6 µM | 99.8 µM | > 100 µM | > 100 µM | > 100 µM | 54.8 µM | 31.4 µM | 24.1 µM | 24.6 µM | 23.4 µM | 21.5 µM | 20.3 µM | 33.7 µM | 23.9 µM | 36.1 µM | 22.9 µM
